Experimental findings from patent US20170045513A1, “METHODS OF DIAGNOSING CELIAC DISEASE USING IP-10” (ImmusanT, Inc., priority 2014, published 2017) are described below.

This assay relates to gluten-reactive T cells. Nature of the assay: 96-well plate whole blood cytokine release, IP-10 by MAGPIX multiplex bead assay. Format: cell-based, human. The conditions noted are these: for Percent of maximal response to individual gluten peptides, IP-10: after oral gluten challenge; for IP-10 WB MAGPIX % max Mean: n = 10, blood after oral gluten challenge, individual peptides 5 μM (Peptide 2* of P14, Pepscan: 10 μg/mL (5.45 μM)).

Non-standard residues stand in square brackets, D forms with d. pGlu = O=C1CC[C@@H](C(=O)O)N1

With “(pE)PEQPIPEQPQPYPQQ-amide ([pGlu]PEQPIPEQPQPYPQQ-NH2; SMILES CC[C@H](C)[C@H](NC(=O)[C@@H]1CCCN1C(=O)[C@H](CCC(N)=O)NC(=O)[C@H](CCC(=O)O)NC(=O)[C@@H]1CCCN1C(=O)[C@@H]1CCC(=O)N1)C(=O)N1CCC[C@H]1C(=O)N[C@@H](CCC(=O)O)C(=O)N[C@@H](CCC(N)=O)C(=O)N1CCC[C@H]1C(=O)N[C@@H](CCC(N)=O)C(=O)N1CCC[C@H]1C(=O)N[C@@H](Cc1ccc(O)cc1)C(=O)N1CCC[C@H]1C(=O)N[C@@H](CCC(N)=O)C(=O)N[C@@H](CCC(N)=O)C(N)=O) [Peptide 3]”, the “IP-10 WB MAGPIX % max Mean” value is given as 65 % max. The “Percent of maximal response to individual gluten peptides, IP-10” value (shortened to “Percent of maximal response”) (Subject 1, Max. 2331 pg/mL) is reported as 51 % of max. The “Percent of maximal response” value (Subject 2, Max. 3646 pg/mL) is listed as 14 % of max. For the same substance, the “Percent of maximal response” value (Subject 3, Max. 9492 pg/mL) is on record as ≥ 100 % of max. Further, the “Percent of maximal response” value (Subject 4, Max. 9463 pg/mL) is ≥ 100 % of max. For the same substance, the “Percent of maximal response” value (Subject 5, Max. 9336 pg/mL) is recorded as 53 % of max. The “Percent of maximal response” value (Subject 6, Max. 5863 pg/mL) is given as 43 % of max. The “Percent of maximal response” value (Subject 7, Max. 2330 pg/mL) is on record as 5 % of max. Further, where the note is “Subject 8, Max. 4019 pg/mL”, the “Percent of maximal response” value is reported as 100 % of max. Moreover, the “Percent of maximal response” value (Subject 9, Max. 8349 pg/mL) is 85 % of max. Under “Subject 10, Max. 8922 pg/mL”, the “Percent of maximal response” value is ≥ 100 % of max. Also, the “whole blood IP-10 release relative to that stimulated by Peptide 14” value (whole blood incubations after oral gluten challenge) is on record as “one-quarter less”.
For “(pE)PQPYPEQPQPFPQQ-amide ([pGlu]PQPYPEQPQPFPQQ-NH2; SMILES NC(=O)CC[C@H](NC(=O)[C@H](CCC(N)=O)NC(=O)[C@@H]1CCCN1C(=O)[C@H](Cc1ccccc1)NC(=O)[C@@H]1CCCN1C(=O)[C@H](CCC(N)=O)NC(=O)[C@@H]1CCCN1C(=O)[C@H](CCC(N)=O)NC(=O)[C@H](CCC(=O)O)NC(=O)[C@@H]1CCCN1C(=O)[C@H](Cc1ccc(O)cc1)NC(=O)[C@@H]1CCCN1C(=O)[C@H](CCC(N)=O)NC(=O)[C@@H]1CCCN1C(=O)[C@@H]1CCC(=O)N1)C(N)=O) [Peptide 8]”, the “IP-10 WB MAGPIX % max Mean” value turned out to be 42 % max. Where the note is “Subject 1, Max. 2331 pg/mL”, the “Percent of maximal response” value was 0 % of max. In addition, under “Subject 2, Max. 3646 pg/mL”, the “Percent of maximal response” value was 5 % of max. For the same substance, the “Percent of maximal response” value (Subject 3, Max. 9492 pg/mL) is given as ≥ 100 % of max. Also, the “Percent of maximal response” value (Subject 4, Max. 9463 pg/mL) is listed as ≥ 100 % of max. Moreover, the “Percent of maximal response” value (Subject 5, Max. 9336 pg/mL) is listed as 45 % of max. Moreover, the “Percent of maximal response” value (Subject 6, Max. 5863 pg/mL) is reported as 2 % of max. The “Percent of maximal response” value (Subject 7, Max. 2330 pg/mL) is given as 0 % of max. For the same substance, the “Percent of maximal response” value (Subject 8, Max. 4019 pg/mL) is 39 % of max. For the same substance, the “Percent of maximal response” value (Subject 9, Max. 8349 pg/mL) is given as 31 % of max. Besides, the “Percent of maximal response” value (Subject 10, Max. 8922 pg/mL) was 94 % of max.
Consider “(pE)QPFPQPELPYPYPQ-amide ([pGlu]QPFPQPELPYPYPQ-NH2; SMILES CC(C)C[C@H](NC(=O)[C@H](CCC(=O)O)NC(=O)[C@@H]1CCCN1C(=O)[C@H](CCC(N)=O)NC(=O)[C@@H]1CCCN1C(=O)[C@H](Cc1ccccc1)NC(=O)[C@@H]1CCCN1C(=O)[C@H](CCC(N)=O)NC(=O)[C@@H]1CCC(=O)N1)C(=O)N1CCC[C@H]1C(=O)N[C@@H](Cc1ccc(O)cc1)C(=O)N1CCC[C@H]1C(=O)N[C@@H](Cc1ccc(O)cc1)C(=O)N1CCC[C@H]1C(=O)N[C@@H](CCC(N)=O)C(N)=O) [Peptide 16]”, for which the “IP-10 WB MAGPIX % max Mean” value was found to be 42 % max. For the same substance, the “Percent of maximal response” value (Subject 1, Max. 2331 pg/mL) is 16 % of max. For the same substance, under “Subject 2, Max. 3646 pg/mL”, the “Percent of maximal response” value was 45 % of max. For the same substance, the “Percent of maximal response” value (Subject 3, Max. 9492 pg/mL) is listed as ≥ 100 % of max. In addition, the “Percent of maximal response” value (Subject 4, Max. 9463 pg/mL) was 69 % of max. The “Percent of maximal response” value (Subject 5, Max. 9336 pg/mL) was 35 % of max. Moreover, the “Percent of maximal response” value (Subject 6, Max. 5863 pg/mL) is given as 4 % of max. Further, where the note is “Subject 7, Max. 2330 pg/mL”, the “Percent of maximal response” value is given as 800 % of max. For the same substance, the “Percent of maximal response” value (Subject 8, Max. 4019 pg/mL) is listed as 1 % of max. Besides, the “Percent of maximal response” value (Subject 9, Max. 8349 pg/mL) is 60 % of max. Also, the “Percent of maximal response” value (Subject 10, Max. 8922 pg/mL) is reported as 11 % of max.
In the case of “(pE)QPFPQPEQPFPLQPEQP-amide ([pGlu]QPFPQPEQPFPLQPEQP-NH2; SMILES CC(C)C[C@H](NC(=O)[C@@H]1CCCN1C(=O)[C@H](Cc1ccccc1)NC(=O)[C@@H]1CCCN1C(=O)[C@H](CCC(N)=O)NC(=O)[C@H](CCC(=O)O)NC(=O)[C@@H]1CCCN1C(=O)[C@H](CCC(N)=O)NC(=O)[C@@H]1CCCN1C(=O)[C@H](Cc1ccccc1)NC(=O)[C@@H]1CCCN1C(=O)[C@H](CCC(N)=O)NC(=O)[C@@H]1CCC(=O)N1)C(=O)N[C@@H](CCC(N)=O)C(=O)N1CCC[C@H]1C(=O)N[C@@H](CCC(=O)O)C(=O)N[C@@H](CCC(N)=O)C(=O)N1CCC[C@H]1C(N)=O) [Peptide 6]”, the “IP-10 WB MAGPIX % max Mean” value is reported as 43 % max. Further, for the setting “Subject 1, Max. 2331 pg/mL”, the “Percent of maximal response” value was 34 % of max. Further, the “Percent of maximal response” value (Subject 2, Max. 3646 pg/mL) is given as 21 % of max. Moreover, the “Percent of maximal response” value (Subject 3, Max. 9492 pg/mL) was ≥ 100 % of max. Also, the “Percent of maximal response” value (Subject 4, Max. 9463 pg/mL) is ≥ 100 % of max. Moreover, the “Percent of maximal response” value (Subject 5, Max. 9336 pg/mL) is on record as 8 % of max. Where the note is “Subject 6, Max. 5863 pg/mL”, the “Percent of maximal response” value is 0 % of max. Further, under “Subject 7, Max. 2330 pg/mL”, the “Percent of maximal response” value is 1 % of max. Besides, where the note is “Subject 8, Max. 4019 pg/mL”, the “Percent of maximal response” value is given as 8 % of max. The “Percent of maximal response” value (Subject 9, Max. 8349 pg/mL) was ≥ 100 % of max. The “Percent of maximal response” value (Subject 10, Max. 8922 pg/mL) is reported as 56 % of max.
